The test has as its system Nrf2 transcriptional activity (pARE-Luc reporter) in HepG2 cells. Nature of the test: In vitro Nrf2 transcriptional activity measurement by ARE-dependent reporter assay in HepG2 cell. It is filed as cell-based, human. To be noted: Homo sapiens; HepG2 cells transfected with pARE-Luc, 4 hours at 37° C.; luciferase activity of Example 1-54 or Example 17-23 at 3.75 μM defined as 100%. In a few lines:
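Luminescence readout (Bright-Glo) after 4 h, 37° C compound exposure of HepG2 cells carrying the ARE-luciferase vector pGL4.37. Each well converted to % response versus reference compound at 3.75 μM, and EC50 derived from dose-response curves.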
In general terms: In a reporter assay the amount or activity of a reporter protein is the signal.
Regarding `CCOC1(C)CN(c2cc(Cl)c(C(=O)N3COc4c(cccc4-c4cc(N5C6CCC5COC6)c(C(=O)O)cc4F)C3)c(Cl)c2)C1` [Compound 4-2, 4-[3-[2,6-Dichloro-4-(3-ethoxy-3-methylazetidin-1-yl)benzoyl]-2,4-dihydro-1,3-benzoxazin-8-yl]-5-fluoro-2-(3-oxa-8-azabicyclo[3.2.1]octan-8-yl)benzoic acid], a half-maximal response (EC50) required 1.2 nM.
As for `CCC1(OC)CN(c2cc(Cl)c(C(=O)N3COc4c(cccc4-c4cc(N5C6CCC5COC6)c(C(=O)O)cc4F)C3)c(Cl)c2)C1` [Compound 4-3, 4-[3-[2,6-Dichloro-4-(3-ethyl-3-methoxyazetidin-1-yl)benzoyl]-2,4-dihydro-1,3-benzoxazin-8-yl]-5-fluoro-2-(3-oxa-8-azabicyclo[3.2.1]octan-8-yl)benzoic acid], the figure is 1.7 nM; as for `COCC1CN(c2cc(Cl)c(C(=O)N3COc4c(cccc4-c4cc(N5C6CCC5COC6)c(C(=O)O)cc4F)C3)c(Cl)c2)C1` [Compound 4-4, 4-[3-[2,6-Dichloro-4-[3-(methoxymethyl)azetidin-1-yl]benzoyl]-2,4-dihydro-1,3-benzoxazin-8-yl]-5-fluoro-2-(3-oxa-8-azabicyclo[3.2.1]octan-8-yl)benzoic acid], 3.2 nM; as for `COC1(C)CN(c2cc(Cl)c(C(=O)N3COc4c(cccc4-c4cc(N5C6CCC5COC6)c(C(=O)O)cc4F)C3)c(Cl)c2)C1` [Compound 4-5, 4-[3-[2,6-Dichloro-4-(3-methoxy-3-methylazetidin-1-yl)benzoyl]-2,4-dihydro-1,3-benzoxazin-8-yl]-5-fluoro-2-(3-oxa-8-azabicyclo[3.2.1]octan-8-yl)benzoic acid], 1.3 nM.
As for `O=C(O)c1cc(F)c(-c2cccc3c2OCN(C(=O)c2c(Cl)cc(N4CC5(COC5)C4)cc2Cl)C3)cc1N1C2CCC1COC2` [Compound 4-6, 4-[3-[2,6-Dichloro-4-(2-oxa-6-azaspiro[3.3]heptan-6-yl)benzoyl]-2,4-dihydro-1,3-benzoxazin-8-yl]-5-fluoro-2-(3-oxa-8-azabicyclo[3.2.1]octan-8-yl)benzoic acid], the figure is 8 nM; as for `O=C(O)c1cc(F)c(-c2cccc3c2OCN(C(=O)c2c(Cl)cc(N4CC5(CCC5)C4)cc2Cl)C3)cc1N1C2CCC1COC2` [Compound 4-7, 4-[3-[4-(2-Azaspiro[3.3]heptan-2-yl)-2,6-dichlorobenzoyl]-2,4-dihydro-1,3-benzoxazin-8-yl]-5-fluoro-2-(3-oxa-8-azabicyclo[3.2.1]octan-8-yl)benzoic acid], 3.3 nM; as for `O=C(O)c1cc(F)c(-c2cccc3c2OCN(C(=O)c2c(Cl)cc(N4CCN5CCC[C@@H]5C4)cc2Cl)C3)cc1N1C2CCC1COC2` [Compound 4-9, 4-[3-[4-[(8aR)-3,4,6,7,8,8a-Hexahydro-1H-pyrrolo[1,2-a]pyrazin-2-yl]-2,6-dichlorobenzoyl]-2,4-dihydro-1,3-benzoxazin-8-yl]-5-fluoro-2-(3-oxa-8-azabicyclo[3.2.1]octan-8-yl)benzoic acid], 2.2 nM.
As for `O=C(O)c1cc(F)c(-c2cccc3c2OCN(C(=O)c2c(Cl)cc(N4CCN(C5CCOC5)CC4)cc2Cl)C3)cc1N1C2CCC1COC2` (centres unmarked) [Compound 4-10, 4-[3-[2,6-Dichloro-4-[4-(oxolan-3-yl)piperazin-1-yl]benzoyl]-2,4-dihydro-1,3-benzoxazin-8-yl]-5-fluoro-2-(3-oxa-8-azabicyclo[3.2.1]octan-8-yl)benzoic acid], the figure is 4.2 nM.
In the case of `O=C(O)c1cc(F)c(-c2cccc3c2OCN(C(=O)c2c(Cl)cc(N4CCNC5(CC5)C4)cc2Cl)C3)cc1N1C2CCC1COC2` [Compound 4-11, 4-[3-[2,6-Dichloro-4-(4,7-diazaspiro[2.5]octan-7-yl)benzoyl]-2,4-dihydro-1,3-benzoxazin-8-yl]-5-fluoro-2-(3-oxa-8-azabicyclo[3.2.1]octan-8-yl)benzoic acid], a half-maximal effect (EC50) was put at 25 nM. This EC50 is about 6-fold higher than that of the compound before.
As for `O=C(O)c1cc(F)c(-c2cccc3c2OCN(C(=O)c2c(Cl)cc(N4CCN(C5CC5)CC4)cc2Cl)C3)cc1N1C2CCC1COC2` [Compound 4-12, 4-[3-[2,6-Dichloro-4-(4-cyclopropylpiperazin-1-yl)benzoyl]-2,4-dihydro-1,3-benzoxazin-8-yl]-5-fluoro-2-(3-oxa-8-azabicyclo[3.2.1]octan-8-yl)benzoic acid], the figure is 2.1 nM.
As for `O=C(O)c1cc(F)c(-c2cccc3c2OCN(C(=O)c2c(Cl)cc(N4CCN5CCOC[C@@H]5C4)cc2Cl)C3)cc1N1C2CCC1COC2` [Compound 4-13, 4-[3-[4-[(9aS)-3,4,6,7,9,9a-Hexahydro-1H-pyrazino[2,1-c][1,4]oxazin-8-yl]-2,6-dichlorobenzoyl]-2,4-dihydro-1,3-benzoxazin-8-yl]-5-fluoro-2-(3-oxa-8-azabicyclo[3.2.1]octan-8-yl)benzoic acid], the figure is 5.8 nM; as for `O=C(O)c1cc(F)c(-c2cccc3c2OCN(C(=O)c2c(Cl)cc(N4CCN5CCOC[C@H]5C4)cc2Cl)C3)cc1N1C2CCC1COC2` [Compound 4-14, 4-[3-[4-[(9aR)-3,4,6,7,9,9a-Hexahydro-1H-pyrazino[2,1-c][1,4]oxazin-8-yl]-2,6-dichlorobenzoyl]-2,4-dihydro-1,3-benzoxazin-8-yl]-5-fluoro-2-(3-oxa-8-azabicyclo[3.2.1]octan-8-yl)benzoic acid], 9 nM; as for `CC(C)(O)CN1CCN(c2cc(Cl)c(C(=O)N3COc4c(cccc4-c4cc(N5C6CCC5COC6)c(C(=O)O)cc4F)C3)c(Cl)c2)CC1` [Compound 4-15, 4-[3-[2,6-Dichloro-4-[4-(2-hydroxy-2-methylpropyl)piperazin-1-yl]benzoyl]-2,4-dihydro-1,3-benzoxazin-8-yl]-5-fluoro-2-(3-oxa-8-azabicyclo[3.2.1]octan-8-yl)benzoic acid], 3.1 nM.
As for `O=C(O)c1cc(F)c(-c2cccc3c2OCN(C(=O)c2c(Cl)cc(N4CCN(CC5CCCO5)CC4)cc2Cl)C3)cc1N1C2CCC1COC2` (centres unmarked) [Compound 4-16, 4-[3-[2,6-Dichloro-4-[4-(oxolan-2-ylmethyl)piperazin-1-yl]benzoyl]-2,4-dihydro-1,3-benzoxazin-8-yl]-5-fluoro-2-(3-oxa-8-azabicyclo[3.2.1]octan-8-yl)benzoic acid], the figure is 2.9 nM; as for `O=C(O)c1cc(F)c(-c2cccc3c2OCN(C(=O)c2c(Cl)cc(N4C[C@@H]5C[C@H]4CO5)cc2Cl)C3)cc1N1C2CCC1COC2` [Compound 4-17, 4-[3-[2,6-Dichloro-4-[(1S,4S)-2-oxa-5-azabicyclo[2.2.1]heptan-5-yl]benzoyl]-2,4-dihydro-1,3-benzoxazin-8-yl]-5-fluoro-2-(3-oxa-8-azabicyclo[3.2.1]octan-8-yl)benzoic acid], 4 nM; as for `C[C@@H]1CN(c2cc(Cl)c(C(=O)N3COc4c(cccc4-c4cc(N5C6CCC5COC6)c(C(=O)O)cc4F)C3)c(Cl)c2)CCO1` [Compound 4-18, 4-[3-[2,6-Dichloro-4-[(2R)-2-methylmorpholin-4-yl]benzoyl]-2,4-dihydro-1,3-benzoxazin-8-yl]-5-fluoro-2-(3-oxa-8-azabicyclo[3.2.1]octan-8-yl)benzoic acid], 3.6 nM.
`O=C(O)c1cc(F)c(-c2cccc3c2OCN(C(=O)c2c(Cl)cc(N4CCOCC4)cc2Cl)C3)cc1N1C2CCC1COC2` [Compound 4-19, 4-[3-(2,6-Dichloro-4-morpholin-4-ylbenzoyl)-2,4-dihydro-1,3-benzoxazin-8-yl]-5-fluoro-2-(3-oxa-8-azabicyclo[3.2.1]octan-8-yl)benzoic acid]: the EC50 (commonly the midpoint of the concentration-response curve) worked out at 2.9 nM.
To `O=C(O)c1ccc(-c2cccc3c2OCN(C(=O)c2c(Cl)cc(N4CC[C@@H](O)C4)cc2Cl)C3)cc1N1CCOCC1` [Compound 4-20, 4-[3-[2,6-Dichloro-4-[(3R)-3-hydroxypyrrolidin-1-yl]benzoyl]-2,4-dihydro-1,3-benzoxazin-8-yl]-2-morpholin-4-ylbenzoic acid] belongs 3 nM; to `O=C(O)c1ccc(-c2cccc3c2OCN(C(=O)c2c(Cl)cc(N4CC5(COC5)C4)cc2Cl)C3)cc1N1CCOCC1` [Compound 4-21, 4-[3-[2,6-Dichloro-4-(2-oxa-6-azaspiro[3.3]heptan-6-yl)benzoyl]-2,4-dihydro-1,3-benzoxazin-8-yl]-2-morpholin-4-ylbenzoic acid], 7.4 nM.
Take `CN1CCCN(c2cc(Cl)c(C(=O)N3COc4c(cccc4-c4cc(N5CCOCC5)c(C(=O)O)cc4F)C3)c(Cl)c2)CC1` [Compound 4-22, 4-[3-[2,6-Dichloro-4-(4-methyl-1,4-diazepan-1-yl)benzoyl]-2,4-dihydro-1,3-benzoxazin-8-yl]-5-fluoro-2-morpholin-4-ylbenzoic acid]: it took 1.8 nM to reach a half-maximal effect (EC50).
To `COCCN(C)c1cc(Cl)c(C(=O)N2COc3c(cccc3-c3cc(N4CCOCC4)c(C(=O)O)cc3F)C2)c(Cl)c1` [Compound 4-23, 4-[3-[2,6-Dichloro-4-[2-methoxyethyl(methyl)amino]benzoyl]-2,4-dihydro-1,3-benzoxazin-8-yl]-5-fluoro-2-morpholin-4-ylbenzoic acid] belongs 1.5 nM; to `O=C(O)c1cc(F)c(-c2cccc3c2OCN(C(=O)c2c(Cl)cc(N4CC5COCC5C4)cc2Cl)C3)cc1N1CCOCC1` (centres unmarked) [Compound 4-24, 4-[3-[4-(1,3,3a,4,6,6a-Hexahydrofuro[3,4-c]pyrrol-5-yl)-2,6-dichlorobenzoyl]-2,4-dihydro-1,3-benzoxazin-8-yl]-5-fluoro-2-morpholin-4-ylbenzoic acid], 2.7 nM; to `COCCN1CCCN(c2cc(Cl)c(C(=O)N3COc4c(cccc4-c4cc(N5CCOCC5)c(C(=O)O)cc4F)C3)c(Cl)c2)CC1` [Compound 4-25, 4-[3-[2,6-Dichloro-4-[4-(2-methoxyethyl)-1,4-diazepan-1-yl]benzoyl]-2,4-dihydro-1,3-benzoxazin-8-yl]-5-fluoro-2-morpholin-4-ylbenzoic acid], 1.9 nM.

The record behind these values is US20250171457A1, “NITROGEN-CONTAINING HETEROCYCLIC COMPOUND HAVING NRF2 ACTIVATION EFFECT” (CHUGAI SEIYAKU KABUSHIKI KAISHA, priority 2022, published 2025).
